Key:
[1] = Oral versus vaginal pharmacokinetics in beagles (25 mg); format: in vivo; conditions: for metabolism after oral administration: oral micronized powder; for metabolism after vaginal administration / peak plasma concentration (Cmax): vaginal suppository
Experimental: FIG. 1 illustrates a comparison of the Cmax (peak serum concentration) and area under the curve (AUC) following oral and vaginal administration of CDB-4124 or CDB-4453 at a 25 mg dose in beagles.
Beagles were administered 25 mg of CDB-4124 or CDB-4453 (the monodemethylated metabolite of CDB-4124) formulated as either a micronized powder or a vaginal suppository.

[2] = Pharmacokinetic studies in clinical trial subjects after oral CDB-4124; format: in vivo, human; conditions: for maximum concentration for the 12.5 mg dose as percentage of the 50 mg dose: oral CDB-4124
Experimental: (§1) The maximum concentrations of CDB-4124 and its mono-demethylated metabolite (CDB-4453) for the 12.5 mg dose were 25% of the 50 mg dose. All liver toxicities resolved in those women that returned for safety follow-ups, including those subjects that developed liver-associated serious adverse effects (SAEs).
Pharmacokinetic studies performed on participating subjects detected a high Cmax and a Tmax at 1-2 hours following administration. Large quantities of the monodemethylated metabolite of CDB-4124 were also detected, clearly indicating first pass metabolism of the antiprogestin. […] Metabolism of CDB-4124 by the liver provides the opportunity for liver damage and greatly reduces the concentration of the antiprogestin before it reaches the systemic circulation. Thus, alternative routes of administration of antiprogestins that avoid first pass metabolism such as, without limitation, intravenous, intramuscular, and sublingual, should allow antiprogestins to be absorbed directly into the systemic circulation and thereby provide a method for treating progesterone-dependent conditions while avoiding liver toxicity. Administration routes which avoid first pass metabolism may also require less drug per dose to achieve the same therapeutic benefit relative to oral administration.

[3] = Pharmacokinetic analysis of vaginal administration of 12 mg CDB-4124; format: in vivo, human
Experimental: (§2) In an oral study, doses of 1, 3, 6, 9 and 12 mg of CDB-4124 were administered for a period of 10 weeks. […] Cessation of menses directly correlated to efficacy of an oral dose in both uterine fibroids and endometriosis.
Thus, the onset of amenorrhea is delayed when the drug is administered vaginally, necessitating that the drug be vaginally administered during subsequent menstruations, which tends to reduce absorption of the drug and is unpleasant and technically challenging for the patient. The methods of the present invention provide a solution to this problem by providing a brief period of oral administration, preceding and overlapping vaginal administration, which expedites the onset of amenorrhea while retaining the benefits of vaginal administration.

[4] = system: progesterone-induced endometrial proliferation; test: Anti-Clauberg study, subcutaneous versus oral; format: in vivo, rabbits
Excerpt: FIG. 3 illustrates a comparison of the inhibition of progesterone-induced endometrial proliferation in estradiol-primed immature rabbits following subcutaneous injection and oral administration of CDB-4124.
To determine whether the low circulating levels of CDB-4124 when administered locally could have any impact predictive of efficacy, an anti-Clauberg study was run in which immature estradiol-primed rabbits were coadministered progesterone and various doses of CDB-4124 by either subcutaneous or oral administration. At least 3 different highly trained individuals evaluated the rabbit uterus for glandular growth, for complexity and overall progesterone-induced “development”. The inhibition (by percentage) of progesterone-induced endometrial proliferation at each dose was assayed. […] However, maximal inhibition required a ˜8-fold increase in dosage when administered orally (i.e. 8 mg/kg). Importantly 8 mg/kg corresponds closely to the 50 mg/day dose of CDB-4124 administered to the female subjects described in Example 3.

[5] = system: progesterone-induced endometrial proliferation; test: Anti-Clauberg study, vaginal versus oral (McPhail index); format: in vivo, rabbits
Experimental: FIG. 4 compares the antiprogestational effects of three doses of CDB-4124 when delivered orally versus when delivered to the vaginal mucosa of estradiol-primed immature rabbits in the presence of progesterone, as measured by a decrease in the McPhail index. Treatment with progesterone alone (vehicle control) provided a baseline measurement of progestational activity.
Another anti-Clauberg study was run in which immature estradiol-primed rabbits were administered progesterone alone (vehicle control) or were coadministered progesterone and three doses of CDB-4124 by either vaginal or oral administration. The inhibition of progesterone-induced endometrial proliferation at each dose was assayed. FIG. 3 illustrates the decrease in the McPhail index following increasing doses of CDB-4124 administered by either route. Maximal inhibition (i.e. a decrease in the McPhail index to 1.5) occurred at 0.2 mg/kg CDB-4124 when administered vaginally, compared to 0.8 mg/kg when administered orally.

[6] = Cmax after vaginal administration in beagles extrapolated to humans; format: in vivo; conditions: for predicted Cmax for vaginal administration as percentage of the same oral dose: humans, extrapolated from beagles
Experimental: FIG. 2 illustrates the actual Cmax observed for Proellex (CDB-4124) and its monodemethylated metabolite CDB-4453, following oral administration of CDB-4124 at 12.5 mg, 25 mg and 50 mg doses as well as the projected Cmax for 3 mg, 6 mg and 9 mg doses. FIG. 2 also illustrates the actual Cmax observed for Proellex (CDB-4124) and its monodemethylated metabolite CDB-4453, following vaginal administration of CDB-4124 at 12.5 mg, 25 mg and 50 mg doses.
The maximum circulating concentrations (Cmax) of CDB-4124 obtained following vaginal administration to beagles were extrapolated to humans for the 12.5 mg, 25 mg and 50 mg doses actually administered during the Phase III clinical studies.
For example, equivalent antiprogestational activity at the uterus is observed for a 50 mg oral dose of CDB-4124 and a 12.5 mg vaginal dose; however, the Cmax observed with a 12.5 mg vaginal dose is only 2% that observed with a 50 mg oral dose. […] Because a high concentration of the drug in the systemic circulation (and associated first pass metabolism of the drug) is not reached by local administration, avoidance of the severe liver toxicity observed in a small percentage of subjects following oral administration of CDB-4124 in previous Phase III clinical studies at doses of 25 and 50 mg is a surprising advantage of administering the drug locally. Similar advantages should inure to local administration of other antiprogestins.

[7] = system: uterine fibroids; test: Single blind study of vaginal CDB-4124 in females with uterine fibroids; format: in vivo, human; conditions: vaginal 12 mg daily
Experimental: Seven human females with uterine fibroids have completed 4 months of treatment as part of a single blind study. These females were vaginally administered a daily dose of 12 mg CDB-4124 for a period of four months, with dosing initiated during the luteal phase of the females' menstrual cycles. At the end of the four month treatment period, all seven females stopped menstruating and all reported a Pictural Blood Loss Assessment Chart (PBAC) score of 0 (p=0.002). A statistically significant and highly clinically meaningful reduction in Uterine Fibroid Symptom Quality of Life Survey (UFSQOL) scores was also observed. The mean UFSQOL score at baseline was 43.8 and at the end of the four month treatment period the mean score was 1.33 (p=0.001). […] As a reference, women with fibroids typically score 40 or higher, whereas women without fibroids report scores of approximately 20.
Change in fibroid volume at the end of the four month treatment period determined by magnetic resonance imagining (MRI) was assessed and a statistically significant (chi square analysis) median reduction of total fibroid volume of 36% was observed.

[8] = Oral study, 1-12 mg CDB-4124 for 10 weeks; format: in vivo
Experimental: as §2

[9] = system: DMBA-induced breast tumors; test: DMBA-induced breast tumor model, subcutaneous injection; format: in vivo, rodents
Experimental: Pre-clinical studies were performed on rodents with breast tumors induced by 7,12-Dimethylbenz(a)anthracene (DMBA).

[10] = system: primary cultures of human and animal hepatocytes; test: Metabolism in primary cultures of hepatocytes; format: in vitro ADME; conditions: primary hepatocyte cultures
[11] = Clinical trials of daily oral Proellex (CDB-4124): liver toxicity / liver enzymes; format: in vivo, human; conditions: for subjects with liver enzyme elevations reported as SAEs: of seven SAEs
Experimental: as §1
To date, over 600 patients, including women with confirmed cases of endometriosis or uterine fibroids, have participated in double blind and open label clinical trials in which patients were administered daily oral capsules containing doses of 12.5 mg, 25 mg or 50 mg CDB-4124 (Proellex) for over one month. Of these patients, about 500 received Proellex and about 130 received a placebo. Of the patients receiving Proellex, about 190 received a dose of 50 mg CDB-4124 per day, about 260 received a dose of 25 mg CDB-4124 per day and about 55 received a dose of 12.5 mg per day.
Liver enzymes were frequently monitored in participating subjects. The liver enzyme level at which the clinical trials would be discontinued was set at an increase in liver aminotransferases greater than, or equal to three times the Upper Limit of Normal (≧3×ULN).
Of the nine subjects with a confirmed increase in liver enzymes ≧3×ULN, seven were severe enough elevations to be reported to the FDA as SAEs. One of these seven subjects had been receiving a dose of 25 mg CDB-4124 per day; the remaining six subjects had been receiving a dose of 50 mg CDB-4124 per day. Liver enzymes ≧3×ULN persisted in five of the nine subjects with a confirmed increase in liver enzymes ≧3×ULN. These five subjects had previously been dosed with the 50 mg dose. One of these subjects is receiving oral medication for treatment of their liver condition. Clinical trials involving CDB-4124 at all doses were voluntarily suspended as a result of these SAEs and were subsequently placed on clinical hold by the United States Food and Drug Administration for safety reasons.

[12] = system: hypothalamic pituitary axis (HPA); test: Low-dose oral CDB-4124: effect on ovulation; format: in vivo; conditions: about 3-25 mg
Excerpt: Contemporaneous systemic and local administration of antiprogestins to treat hormonally responsive breast cancer (i.e. the breast tumor contains estrogen and/or progesterone receptor) has advantages as well.

CNc1ccc([C@H]2C[C@@]3(C)[C@@H](CC[C@]3(OC(C)=O)C(=O)COC)[C@@H]3CCC4=CC(=O)CCC4=C32)cc1 [CDB-4453, 21-methoxy-17α-acetoxy-11β-(4-N-methylaminophenyl)-19-norpregna-4,9-diene-3,20-dione]
systemic exposure (AUC), vaginal vs. oral [1]: much lower when administered locally | metabolism after oral administration [1]: rapidly metabolized | metabolism after vaginal administration [1]: metabolized slowly | peak plasma concentration (Cmax) [1]: relatively low | maximum concentration for the 12.5 mg dose as percentage of the 50 mg dose [2]: 25%

COCC(=O)[C@@]1(OC(C)=O)CC[C@H]2[C@@H]3CCC4=CC(=O)CCC4=C3[C@@H](c3ccc(N(C)C)cc3)C[C@@]21C [CDB-4124, 21-methoxy-17α-acetoxy-11β-(4 N, N-dimethylaminophenyl)-19-norpregna-4,9-diene-3,20-dione]
maximum exposure (Cmax) relative to a 50 mg oral dose ([3]; vaginal 12 mg): about 1/100 | systemic exposure (AUC) relative to an equivalent oral dose ([3]; vaginal 12 mg): about ⅙ | build-up of drug concentration, vaginal relative to oral ([3]; vaginal administration): build slowly | dose giving maximal inhibition of progesterone-induced endometrial proliferation ([4]; oral): 8 mg/kg | increase in dosage required for maximal inhibition, oral vs. subcutaneous ([4]; rabbit, in vivo): ~8 fold | dose giving maximal inhibition of progesterone-induced endometrial proliferation ([4]; subcutaneous): less than 1 mg/kg | McPhail index at maximal inhibition ([5]; 0.2 mg/kg vaginal or 0.8 mg/kg oral): 1.5 | dose giving maximal inhibition (decrease in McPhail index) ([5]; oral): 0.8 mg/kg | antiprogestational activity of vaginal delivery relative to the same oral dose ([5]; rabbit, in vivo, po): four | dose giving maximal inhibition (decrease in McPhail index) ([5]; vaginal): 0.2 mg/kg | predicted Cmax for vaginal administration as percentage of the same oral dose ([6]; 12.5 mg dose): approximately 6.5% | predicted Cmax for vaginal administration as percentage of the same oral dose ([6]; 50 mg dose): approximately 2% | Cmax with a 12.5 mg vaginal dose as percentage of a 50 mg oral dose ([6]; in vivo, po): 2% | systemic exposure (AUC), vaginal vs. oral [1]: much lower when administered locally | metabolism after oral administration [1]: rapidly metabolized | metabolism after vaginal administration [1]: metabolized slowly | peak plasma concentration (Cmax) [1]: relatively low | median reduction of total fibroid volume (MRI) ([7]; end of four months): 36% | Pictural Blood Loss Assessment Chart (PBAC) score ([7]; end of four months, p=0.002): 0 | females who stopped menstruating ([7]; end of four months, seven females): seven | mean Uterine Fibroid Symptom Quality of Life Survey (UFSQOL) score ([7]; end of four months, baseline 43.8, p=0.001): 1.33 | females no longer experiencing any fibroid related symptoms ([7]; four months, of seven): six | lowest dose inducing reliable cessation of menses ([8]; oral): 3 mg | tolerability ([8]; oral 1, 3, 6, 9 and 12 mg): well tolerated | effect on quantity and size of DMBA-induced breast tumors [9]: effective in reducing the quantity and size of DMBA-induced breast tumors | Tmax ([2]; following oral administration): 1 to 2 h | maximum concentration for the 12.5 mg dose as percentage of the 50 mg dose [2]: 25% | formation of mono-demethylated metabolite [10]: rapidly produce the mono-demethylated metabolite | adverse liver toxicity signals ([11]; 12.5 mg): no adverse liver toxicity signals different from placebo | subjects with liver enzyme elevations reported as SAEs ([11]; 25 mg per day): One | frequency and intensity of liver effects relative to 50 mg/day ([11]; 25 mg/day): significantly lower in frequency and intensity | subjects in whom liver enzymes ≧3×ULN persisted ([11]; 50 mg dose, of nine confirmed): five | subjects with liver enzyme elevations reported as SAEs ([11]; 50 mg per day): six | women exhibiting severe liver toxicity ([11]; 50 mg/day): 3-4% | subjects with confirmed increase in liver enzymes ≧3×ULN ([11]; all doses (12.5, 25, 50 mg/day), confirmed by repeat test in 48 hours): nine | suppression of ovulation [12]: partially but not completely suppress ovulation
